Source: ChEMBL document CHEMBL4387766, “Synthesis and biological evaluation of PSMA-targeting paclitaxel conjugates” (Bioorg Med Chem Lett, 2019)

Experiments:
[1] = Selectivity ratio of CC50 for human VA13 cells to CC50 for PSMA-positive human LNCAP cells
[2] = Selectivity ratio of CC50 for human VA13 cells to CC50 for PSMA-positive human 22Rv1 cells
[3] = Cytotoxicity against HEK293T cells assessed as reduction in cell viability measured after 72 hrs by MTT assay; type: cell-based, HEK-293T; conditions: human
[4] = Selectivity ratio of CC50 for human PSMA-deficient PC3 cells to CC50 for PSMA-positive human 22Rv1 cells; type: functional
[5] = Cytotoxicity against human A549 cells assessed as reduction in cell viability measured after 72 hrs by MTT assay; type: cell-based
LNCaP = assay: Cytotoxicity against PSMA-positive human LNCAP cells assessed as reduction in cell viability measured after 72 hrs by MTT assay; type: functional
[6] = Cytotoxicity against human MCF7 cells assessed as reduction in cell viability measured after 72 hrs by MTT assay; type: cell-based
CWR22R [7] = assay: Antitumor activity against human 22Rv1 cells xenografted in nu/nu mouse assessed as tumor growth inhibition at 6 mg/kg, iv administered 3 times per week relative to control; type: functional; conditions: 22Rv1, iv, read-out: TGI
[8] = Selectivity ratio of CC50 for human PSMA-deficient PC3 cells to CC50 for PSMA-positive human LNCAP cells; type: functional
PC-3 = assay: Cytotoxicity against PSMA-deficient human PC3 cells assessed as reduction in cell viability measured after 72 hrs by MTT assay; type: functional; conditions: PC-3, 72 h
CWR22R [9] = assay: Cytotoxicity against PSMA-positive human 22Rv1 cells assessed as reduction in cell viability measured after 72 hrs by MTT assay; type: functional; conditions: 22Rv1, 72 h
[10] = Cytotoxicity against human VA13 cells assessed as reduction in cell viability measured after 72 hrs by MTT assay; type: cell-based; conditions: WI-38 VA13 cells
CWR22R [11] = assay: Antitumor activity against human 22Rv1 cells xenografted in nu/nu mouse assessed as tumor growth inhibition at 10 mg/kg, iv administered 3 times per week relative to control; type: functional; conditions: 22Rv1, iv, read-out: TGI
[12] = biological target: Glutamate carboxypeptidase 2 (Homo sapiens, UniProt Q04609); assay: Inhibition of PSMA in human LNCAP cells using NAAG as substrate measured after 2 hrs by amplex red reagent based fluorescence assay; type: cell-based
Glutamate carboxypeptidase 2, sequence (Q04609 whole entry): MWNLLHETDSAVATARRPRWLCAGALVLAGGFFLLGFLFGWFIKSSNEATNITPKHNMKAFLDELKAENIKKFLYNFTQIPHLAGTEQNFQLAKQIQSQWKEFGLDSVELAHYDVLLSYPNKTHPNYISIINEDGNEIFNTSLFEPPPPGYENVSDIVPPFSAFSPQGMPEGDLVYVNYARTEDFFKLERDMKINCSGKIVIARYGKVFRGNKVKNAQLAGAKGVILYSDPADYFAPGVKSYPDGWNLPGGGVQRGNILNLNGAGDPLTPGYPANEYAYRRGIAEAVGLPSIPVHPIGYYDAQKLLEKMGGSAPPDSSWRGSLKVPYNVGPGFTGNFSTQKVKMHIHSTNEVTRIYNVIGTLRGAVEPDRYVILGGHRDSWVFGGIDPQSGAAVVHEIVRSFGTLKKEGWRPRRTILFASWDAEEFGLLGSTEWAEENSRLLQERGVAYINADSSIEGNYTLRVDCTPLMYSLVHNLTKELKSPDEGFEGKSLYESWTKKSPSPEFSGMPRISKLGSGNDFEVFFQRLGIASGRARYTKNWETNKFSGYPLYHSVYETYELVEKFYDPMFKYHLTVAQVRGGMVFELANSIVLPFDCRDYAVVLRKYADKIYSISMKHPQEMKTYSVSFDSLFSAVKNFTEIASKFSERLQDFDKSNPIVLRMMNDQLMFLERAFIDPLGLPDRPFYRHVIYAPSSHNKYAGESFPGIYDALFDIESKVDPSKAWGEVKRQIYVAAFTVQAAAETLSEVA

Which Selectivity ratio [1] does the source give for CC(=O)O[C@H]1C(=O)[C@@]2(C)[C@H]([C@H](OC(=O)c3ccccc3)[C@]3(O)C[C@H](OC(=O)[C@H](O)[C@@H](NC(=O)c4ccccc4)c4ccccc4)C(C)=C1C3(C)C)[C@]1(OC(C)=O)CO[C@@H]1C[C@@H]2O [PACLITAXEL] here?
The Selectivity ratio was 1.

And the Selectivity ratio [2]?
Its Selectivity ratio is 1.

What about the CC50 at 72 h [3] of the same molecule?
Its CC50 at 72 h is < 20 nM.

What about the Selectivity ratio [4] of the same molecule?
Its Selectivity ratio is 1.

What about the CC50 at 72 h [5] of the same molecule?
The CC50 at 72 h was < 20 nM.

What about the CC50 (LNCaP) of the same molecule?
Its CC50 is 1.4 nM.

What about the CC50 at 72 h [6] of the same molecule?
Its CC50 at 72 h is < 20 nM.

What about the inhibition in vivo at 6 mg/kg (CWR22R [7]) of the same molecule?
Its inhibition in vivo at 6 mg/kg is 30%.

And the Selectivity ratio [8]?
The Selectivity ratio was 1.

What about the CC50 (PC-3) of the same molecule?
Its CC50 is 2.7 nM.

What about the CC50 (CWR22R [9]) of the same molecule?
Its CC50 is 3.9 nM.

And the CC50 at 72 h [10]?
The CC50 at 72 h was < 20 nM.

What does the source list for CC(=O)O[C@H]1C(=O)[C@@]2(C)[C@H]([C@H](OC(=O)c3ccccc3)[C@]3(O)C[C@H](OC(=O)[C@H](OC(=O)CCCc4cn(CCCCCC(=O)NCCCC[C@H](NC(=O)N[C@@H](CCC(=O)O)C(=O)O)C(=O)O)nn4)[C@@H](NC(=O)c4ccccc4)c4ccccc4)C(C)=C1C3(C)C)[C@]1(OC(C)=O)CO[C@@H]1C[C@@H]2O?
Selectivity ratio [1]: 0.47; Selectivity ratio [2]: 0.62; CC50 at 72 h [3]: < 20 nM; Selectivity ratio [4]: 1.13; CC50 at 72 h [5]: < 20 nM; CC50 (LNCaP): 58 nM; inhibition in vivo at 10 mg/kg (CWR22R [11]): 30%; CC50 at 72 h [6]: < 20 nM; Selectivity ratio [8]: 0.85; CC50 (PC-3): 95 nM; CC50 (CWR22R [9]): 120 nM; CC50 at 72 h [10]: < 20 nM

With [N-]=[N+]=NCCCCCC(=O)N(CCCC[C@H](NC(=O)N[C@@H](CCC(=O)O)C(=O)O)C(=O)O)Cc1ccc(Cl)cc1 as the molecule, how does the IC50 [12] read?
The IC50 was 110 nM.

What about the CC50 at 72 h [10] of the same molecule?
The CC50 at 72 h was > 100000 nM.

Which IC50 [12] does the source give for NCCCC[C@H](NC(=O)N[C@@H](CCC(=O)O)C(=O)O)C(=O)O here?
The IC50 was 1470 nM.

And the CC50 at 72 h [10]?
The CC50 at 72 h was > 100000 nM.

Which Selectivity ratio [1] does the source give for CC(=O)O[C@H]1C(=O)[C@]2(C)[C@@H](OC(=O)CCCc3cn(CCCCCCCCCCC(=O)NCCCC[C@H](NC(=O)N[C@@H](CCC(=O)O)C(=O)O)C(=O)O)nn3)C[C@H]3OC[C@@]3(OC(C)=O)[C@H]2[C@H](OC(=O)c2ccccc2)[C@]2(O)C[C@H](OC(=O)[C@H](O)[C@@H](NC(=O)c3ccccc3)c3ccccc3)C(C)=C1C2(C)C here?
The Selectivity ratio was 0.53.

What about the Selectivity ratio [2] of the same molecule?
Its Selectivity ratio is 0.59.

What about the CC50 at 72 h [3] of the same molecule?
Its CC50 at 72 h is 730 nM.

What about the Selectivity ratio [4] of the same molecule?
The Selectivity ratio was 1.61.

And the CC50 at 72 h [5]?
The CC50 at 72 h was 632 nM.

What about the CC50 (LNCaP) of the same molecule?
Its CC50 is 1010 nM.

What about the CC50 at 72 h [6] of the same molecule?
Its CC50 at 72 h is 1210 nM.

What about the Selectivity ratio [8] of the same molecule?
The Selectivity ratio was 1.43.

And the CC50 (PC-3)?
Its CC50 is 2920 nM.

And the CC50 (CWR22R [9])?
Its CC50 is 2640 nM.

And the CC50 at 72 h [10]?
Its CC50 at 72 h is 1160 nM.

For [N-]=[N+]=NCCCCCC(=O)N(CCCC[C@H](NC(=O)N[C@@H](CCC(=O)O)C(=O)O)C(=O)O)Cc1ccc(Br)cc1, which IC50 [12] is on record?
The IC50 was 170 nM.

With [N-]=[N+]=NCCCCCC(=O)N(CCCC[C@H](NC(=O)N[C@@H](CCC(=O)O)C(=O)O)C(=O)O)Cc1ccc(O)cc1 as the molecule, how does the IC50 [12] read?
The IC50 was 140 nM.

What about the CC50 at 72 h [10] of the same molecule?
Its CC50 at 72 h is 50200 nM.
